Format in all cases: cell-based
The target of assay [1] is T1, 17-beta-hydroxysteroid dehydrogenase type 2 (Homo sapiens) (UniProt P37059).
T1 sequence (whole entry): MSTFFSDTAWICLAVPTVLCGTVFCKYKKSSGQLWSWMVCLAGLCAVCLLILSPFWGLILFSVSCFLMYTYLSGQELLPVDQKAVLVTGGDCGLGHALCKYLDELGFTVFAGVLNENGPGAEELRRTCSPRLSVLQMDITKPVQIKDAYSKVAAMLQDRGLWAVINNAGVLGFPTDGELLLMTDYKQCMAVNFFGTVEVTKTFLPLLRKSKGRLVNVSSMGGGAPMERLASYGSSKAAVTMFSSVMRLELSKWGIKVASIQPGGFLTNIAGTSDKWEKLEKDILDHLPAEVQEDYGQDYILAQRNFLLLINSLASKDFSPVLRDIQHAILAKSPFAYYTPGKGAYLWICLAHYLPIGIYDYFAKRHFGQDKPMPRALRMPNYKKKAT
Put plainly: Inhibition of 17beta-HSD2 expressed in intact human MDA-MB-231 cells at 10 uM after 3 hrs.

Assay [2] deals with T2, 17-beta-hydroxysteroid dehydrogenase type 1 (Homo sapiens, UniProt P14061).
T2 sequence (P14061 whole entry): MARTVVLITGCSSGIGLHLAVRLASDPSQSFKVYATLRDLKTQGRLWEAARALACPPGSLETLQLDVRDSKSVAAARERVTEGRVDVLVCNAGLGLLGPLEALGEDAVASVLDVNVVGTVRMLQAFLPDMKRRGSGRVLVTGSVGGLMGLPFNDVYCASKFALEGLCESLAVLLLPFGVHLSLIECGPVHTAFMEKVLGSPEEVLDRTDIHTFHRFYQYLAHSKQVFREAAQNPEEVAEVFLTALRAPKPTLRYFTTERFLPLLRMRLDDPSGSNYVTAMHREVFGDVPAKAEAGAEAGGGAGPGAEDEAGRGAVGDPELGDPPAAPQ
The assay is described as follows: Inhibition of 17beta-HSD1 expressed in intact human T47D cells after 30 mins.

Assay [3] has as its target T3, 17-beta-hydroxysteroid dehydrogenase type 1 (Homo sapiens) (UniProt P14061).
T3 sequence (whole entry): T2 sequence (P14061 whole entry)
The assay is described as follows: Inhibition of 17beta-HSD1 expressed in intact human T47D cells at 10 uM after 30 mins.

In assay [4] the target is T3, 17-beta-hydroxysteroid dehydrogenase type 1 (Homo sapiens). The assay is described as follows: Inhibition of 17beta-HSD1 expressed in intact human T47D cells at 1 uM after 30 mins.

Activity calls are given as the source filed them. The calls are words filed in the database; no cut-off is given here.

Broadly, the inhibition is the relative decrease from the control value, in per cent. By IC50 is commonly meant the point on the concentration scale where inhibition reaches its midpoint. High values mean lower potency, low ones higher potency. On to `CCc1cc(-c2ccc(C(C)=O)cc2)ccc1O`, for which the inhibition in assay [1] was 51%; in assay [3], 73%. This molecule also showed a 50% inhibitory concentration (IC50) in assay [2] of 5.4 µM. On to `CCc1cc(-c2ccc3c(c2)CC(CC(=O)NCc2ccccn2)C3=O)ccc1O` (stereo not drawn), for which the outcome in assay [4] was inactive. Take `COc1ccc(-c2ccc3c(c2)CCCC3=O)cc1`: the outcome in assay [3] was inactive. For `COc1ccc(-c2ccc(C(C)=O)cc2)c(C)c1`, the outcome in assay [3] was inactive. With `CCc1cc(-c2ccc3c(c2)CC(CC(=O)NCc2cnc(C)cn2)C3=O)ccc1O` (stereo not drawn), in assay [4], the result was inactive. As for `O=C1CCc2cc(-c3ccccc3)ccc21`, the outcome in assay [3] was inactive. On the same count and under the same terms, as for `COc1ccc(-c2ccc(C(C)=O)cc2)cc1`, the entry is “inactive”. In assay [4], `CCc1cc(-c2ccc(C(=O)CCC(=O)NCCc3cccnc3)c(C)c2)ccc1O` gave an inhibition of 15%. Same read-out and setting: the value for `CCc1cc(-c2ccc(C(=O)CC(C)(C)C(=O)NCCc3cccnc3)cc2)ccc1O` was 15%; that for `CCc1cc(-c2ccc(C(=O)CCC(=O)NCCc3cccnc3)cc2)ccc1O` was 17%.

In the case of `CCc1cc(-c2ccc(C(C)=O)cc2)ccc1OC`, in assay [3], the outcome was inactive. On the same count and under the same terms, the value for `CC(=O)c1ccc(-c2ccc(O)cc2)c(C)c1` was “inactive”.

On to `O=C1CCc2cc(-c3ccc(O)c(F)c3)ccc21`, for which the inhibition in assay [1] was 24%; in assay [3], 75%. This molecule also displayed an IC50 in assay [2] of 2.9 µM.

In assay [3], `CCc1cc(-c2ccc3c(c2)CCCC3=O)ccc1O` yielded an inhibition of 51%.

In assay [2], `CCc1cc(-c2ccc(O)cc2)ccc1C(C)=O` came in with a half-maximal inhibitory concentration (IC50) of 9.9 µM. Moreover, the inhibition in assay [3] is 71%.

In assay [2], `CC(=O)c1ccc2c(c1)Cc1cc(O)ccc1-2` gave an IC50 of 4.8 µM. In assay [3], this molecule gave an inhibition of 86%.

Regarding `CCc1cc(-c2ccc3c(c2)CCC3=O)ccc1O`, the inhibition in assay [1] stood at 48%; in assay [3] it was 86%. Further, the IC50 in assay [2] came to 2 µM. Turning to `CCc1cc(-c2ccc(C(=O)CC(C)(C)C(=O)NCc3cccnc3)cc2)ccc1O`, the IC50 in assay [2] amounted to 1.8 µM. Further, the inhibition in assay [4] worked out at 38%. `O=C1CCCc2cc(-c3ccc(O)cc3)ccc21`: the IC50 in assay [2] was determined as 15.6 µM. Moreover, the inhibition in assay [3] came to 89%.

In turn, `CCc1cc2c(cc1O)CC[C@@H]1[C@@H]2CC[C@]2(C)C(=O)[C@@H](CC(=O)NCc3cccnc3)C[C@@H]12` had a half-maximal inhibitory concentration (IC50) in assay [2] of 0.027 µM.

As for `CCc1cc(-c2ccc3c(c2)CC(CC(=O)NCc2cccnc2)C3=O)ccc1O` (stereo not drawn), the IC50 in assay [2] was determined as 4.7 µM. This molecule also showed an inhibition in assay [4] of 39%. Consider `CCc1cc(-c2ccc(C(=O)CCC(=O)NCc3cccnc3)cc2)ccc1O`, for which the inhibition was 12% in assay [1] and 24% in assay [4]. In assay [2], this molecule yielded a half-inhibitory concentration (IC50) of 3.7 µM. Consider `COc1ccc(-c2ccc3c(c2)CCC3=O)cc1`, for which, in assay [3], the result was inactive. Same read-out and setting: as for `COc1ccc(-c2ccc(C(C)=O)cc2C)cc1`, the entry is “inactive”.

Take `O=C1CCc2cc(-c3ccc(O)cc3)ccc21`: the inhibition in assay [1] came out at 17%; in assay [3], 81%. Besides, the IC50 in assay [2] is 1.7 µM. In the case of `CC(=O)c1ccc(-c2ccc(O)cc2C)cc1`, the concentration for half-maximal inhibition (IC50) in assay [2] was 3.7 µM. In assay [2], `CCc1cc(-c2ccc3c(c2)CCCC3=O)ccc1OC` had an IC50 of 8.3 µM. Further, in assay [3], the inhibition was found to be 71%. As for `CC(=O)c1ccc(-c2ccc3c(c2)OCO3)cc1`, the outcome in assay [3] was inactive. The same measure, in the same setting: as for `COc1ccc2c(c1)Cc1cc(C(C)=O)ccc1-2`, the entry is “inactive”.

Turning to `COc1ccc(-c2ccc3c(c2)CCC3=O)cc1F`, the inhibition in assay [3] was 56%. In turn, `CCc1cc(-c2ccc(C(=O)CCC(=O)NCCO)cc2)ccc1O` showed an inhibition in assay [4] of 23%. The same measure, in the same setting: the value for `CCc1cc(-c2ccc(C(=O)CCC(=O)NCc3cccnc3)c(C)c2)ccc1O` was 21%. For `CCc1cc(-c2ccc(C(=O)CCC(=O)NCc3ccccn3)cc2)ccc1O`, the result in assay [4] was inactive. Molecule `CC(=O)c1ccc(-c2ccc(O)cc2)cc1` came in with an IC50 in assay [2] of 3.7 µM. In addition, the inhibition in assay [3] amounted to 97%. With `CCc1cc(-c2ccc(C(=O)CC(C)(C)C(=O)NCc3cccnc3)cc2)ccc1OC`, the inhibition in assay [4] was 17%. In the case of `CCc1cc(-c2ccc3c(c2)CCC3=O)ccc1OC`, in assay [3], the outcome was inactive.

The values are drawn from ChEMBL document CHEMBL1144736, “Novel inhibitors of 17beta-hydroxysteroid dehydrogenase type 1: templates for design” (Bioorg Med Chem, 2008).
